Measurements taken from patent publication EP1025114B1, “3'-N-MODIFIED 6-O-SUBSTITUTED ERYTHROMYCIN KETOLIDE DERIVATIVES HAVING ANTIBACTERIAL ACTIVITY” (priority 1997, dated 1999).

Key:
Assay in all cases: In vitro antibacterial activity, agar dilution MIC
Assay type in all cases: cell-based
[1] = system: Escherichia coli JUHL; details: Escherichia coli JUHL (organism code QQ); BHI agar, 35-37 °C, 20 to 24 hours; unit assumed
How it was run: (§1)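 Test compound was serially diluted in Brain Heart Infusion agar across twelve plates, and each plate was spot-inoculated by replicator with 1:100 culture dilutions (1:10 for slow growers such as Streptococcus). MIC was the lowest concentration giving no growth, slight haze or sparsely isolated colonies relative to a drug-free growth control.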

[2] = system: Enterococcus faecium ATCC 8043; details: Enterococcus faecium ATCC 8043 (organism code II); BHI agar, 35-37 °C, 20 to 24 hours; unit assumed
How it was run: as §1

[3] = system: Escherichia coli SS; details: Escherichia coli SS (organism code RR); BHI agar, 35-37 °C, 20 to 24 hours; unit assumed
How it was run: as §1

[4] = system: Streptococcus pyogenes EES61; details: Streptococcus pyogenes EES61 (organism code LL); BHI agar, 35-37 °C, 20 to 24 hours; unit assumed
How it was run: as §1

[5] = system: Streptococcus Pheumoniae ATCC6303; details: Streptococcus Pheumoniae ATCC6303 (organism code XX); BHI agar, 35-37 °C, 20 to 24 hours; unit assumed
How it was run: as §1

[6] = system: Streptococcus bovis A-5169; details: Streptococcus bovis A-5169 (organism code JJ); BHI agar, 35-37 °C, 20 to 24 hours; unit assumed
How it was run: as §1

[7] = system: Staphylococcus aureus 1775; details: Staphylococcus aureus 1775 (organism code GG); BHI agar, 35-37 °C, 20 to 24 hours; unit assumed
How it was run: as §1

[8] = system: Streptococcus Pheumoniae GYR 1171; details: Streptococcus Pheumoniae GYR 1171 (organism code YY); BHI agar, 35-37 °C, 20 to 24 hours; unit assumed
How it was run: as §1

[9] = system: Staphylococcus epidermidis 3519; details: Staphylococcus epidermidis 3519 (organism code HH); BHI agar, 35-37 °C, 20 to 24 hours; unit assumed
How it was run: as §1

[10] = system: Streptococcus pyogenes PIU 2548; details: Streptococcus pyogenes PIU 2548 (organism code NN); BHI agar, 35-37 °C, 20 to 24 hours; unit assumed
How it was run: as §1

[11] = system: Streptococcus pyogenes 930; details: Streptococcus pyogenes 930 (organism code MM); BHI agar, 35-37 °C, 20 to 24 hours; unit assumed
How it was run: as §1

[12] = system: Staphylococcus aureus CMX 553; details: Staphylococcus aureus CMX 553 (organism code FF); BHI agar, 35-37 °C, 20 to 24 hours; unit assumed
How it was run: as §1

[13] = system: Nocardia Asteroides ATCC9970; details: Nocardia Asteroides ATCC9970 (organism code VV); BHI agar, 35-37 °C, 20 to 24 hours; unit assumed
How it was run: as §1

[14] = system: Staphylococcus aureus A-5278; details: Staphylococcus aureus A-5278 (organism code CC); BHI agar, 35-37 °C, 20 to 24 hours; unit assumed
How it was run: as §1

[15] = system: Escherichia coli DC-2; details: Escherichia coli DC-2 (organism code SS); BHI agar, 35-37 °C, 20 to 24 hours; unit assumed
How it was run: as §1

[16] = system: Streptococcus Pheumoniae 5979; details: Streptococcus Pheumoniae 5979 (organism code ZZ); BHI agar, 35-37 °C, 20 to 24 hours; unit assumed
How it was run: as §1

[17] = system: Streptococcus Pheumoniae 5649; details: Streptococcus Pheumoniae 5649 (organism code ZZA); BHI agar, 35-37 °C, 20 to 24 hours; unit assumed
How it was run: as §1

[18] = system: Staphylococcus aureus A5177; details: Staphylococcus aureus A5177 (organism code BB); BHI agar, 35-37 °C, 20 to 24 hours; unit assumed
How it was run: as §1

[19] = system: Staphylococcus aureus NCTC10649M; details: Staphylococcus aureus NCTC10649M (organism code EE); BHI agar, 35-37 °C, 20 to 24 hours; unit assumed
How it was run: as §1

[20] = system: Mycobacterium smegmatis ATCC 114; details: Mycobacterium smegmatis ATCC 114 (organism code UU); BHI agar, 35-37 °C, 20 to 24 hours; unit assumed
How it was run: as §1

[21] = system: Micrococcus luteus ATCC 4698; details: Micrococcus luteus ATCC 4698 (organism code PP); BHI agar, 35-37 °C, 20 to 24 hours; unit assumed
How it was run: as §1

[22] = system: Haemophilis Influenzae DILL AMP R; details: Haemophilis Influenzae DILL AMP R (organism code WW); BHI agar, 35-37 °C, 20 to 24 hours; unit assumed
How it was run: as §1

[23] = system: Candida albicans CCH 442; details: Candida albicans CCH 442 (organism code TT); BHI agar, 35-37 °C, 20 to 24 hours; unit assumed
How it was run: as §1

[24] = system: Staphylococcus aureus ATCC 6538P; details: Staphylococcus aureus ATCC 6538P (organism code AA); BHI agar, 35-37 °C, 20 to 24 hours; unit assumed
How it was run: as §1

[25] = system: Staphylococcus aureus CMX 642A; details: Staphylococcus aureus CMX 642A (organism code DD); BHI agar, 35-37 °C, 20 to 24 hours; unit assumed
How it was run: as §1

[26] = system: Micrococcus luteus ATCC 9341; details: Micrococcus luteus ATCC 9341 (organism code OO); BHI agar, 35-37 °C, 20 to 24 hours; unit assumed
How it was run: as §1

[27] = system: Streptococcus agalactiae CMX 508; details: Streptococcus agalactiae CMX 508 (organism code KK); BHI agar, 35-37 °C, 20 to 24 hours; unit assumed
How it was run: as §1

| SMILES | MIC [1] | MIC [2] | MIC [3] | MIC [4] | MIC [5] | MIC [6] | MIC [7] | MIC [8] | MIC [9] | MIC [10] | MIC [11] | MIC [12] | MIC [13] | MIC [14] | MIC [15] | MIC [16] | MIC [17] | MIC [18] | MIC [19] | MIC [20] | other results |
| --- | --- | --- | --- | --- | --- | --- | --- | --- | --- | --- | --- | --- | --- | --- | --- | --- | --- | --- | --- | --- | --- |
| C=C(C)CN(C)[C@H]1C[C@@H](C)O[C@@H](O[C@@H]2[C@@H](C)C(=O)[C@@H](C)C(=O)O[C@H](CC)[C@@]3(C)OC(=O)N[C@@H]3[C@@H](C)C(=O)[C@H](C)C[C@@]2(C)OCC=Cc2cnc3ccccc3c2)[C@@H]1O [Example 19, Compound of Formula (II); R is -CH2CH=CH-(3-quinolyl), R^p is H, W is absent, R^w is H, R^1 is CH2C(=CH2)CH3,R^2 is CH3] | > 100 µg/mL | 0.1 µg/mL | 0.78 µg/mL | 0.01 µg/mL | ≤ 0.004 µg/mL | 0.02 µg/mL | > 100 µg/mL | ≤ 0.004 µg/mL | 0.2 µg/mL | 0.2 µg/mL | 6.2 µg/mL | 0.2 µg/mL | 0.1 µg/mL | > 100 µg/mL | > 100 µg/mL | 128 µg/mL | 0.12 µg/mL | 0.2 µg/mL | 0.39 µg/mL | 0.2 µg/mL | MIC [21]: 0.1 µg/mL; MIC [22]: 4 µg/mL; MIC [23]: > 100 µg/mL; MIC [24]: 0.2 µg/mL; MIC [25]: 0.2 µg/mL; MIC [26]: 0.05 µg/mL; MIC [27]: 0.02 µg/mL |
| CC[C@H]1OC(=O)[C@H](C)C(=O)[C@H](C)[C@@H](O[C@@H]2O[C@H](C)C[C@H](N(C)C3CC3)[C@H]2O)[C@](C)(OCC=Cc2cnc3ccccc3c2)C[C@@H](C)C(=O)[C@H](C)[C@H]2NC(=O)O[C@@]21C [Example 20, Compound of Formula (II); R is -CH2CH=CH-(3-quinolyl), R^p is H, W is absent, R^w is H, R^1 is cyclo-C3H5, R^2 is CH3] | > 100 µg/mL | 0.39 µg/mL | 3.1 µg/mL | 0.1 µg/mL | 0.03 µg/mL | 0.2 µg/mL | > 100 µg/mL | 0.03 µg/mL | 3.1 µg/mL | 0.39 µg/mL | > 100 µg/mL | 1.56 µg/mL | 3.1 µg/mL | > 100 µg/mL | > 100 µg/mL | 16 µg/mL | 0.25 µg/mL | 3.1 µg/mL | 3.1 µg/mL | 3.1 µg/mL | MIC [21]: 0.78 µg/mL; MIC [22]: 64 µg/mL; MIC [23]: > 100 µg/mL; MIC [24]: 1.56 µg/mL; MIC [25]: 1.56 µg/mL; MIC [26]: 0.39 µg/mL; MIC [27]: 0.2 µg/mL |
